What was measured:
[1] = system: CAKI-1; test: Cytotoxicity against human Caki1 cells after 48 hrs by SRB assay; format: functional; conditions: CAKI-1, 48 h
[2] = system: MOLT-4; test: Cytotoxicity against human MOLT4 cells assessed as cellular growth at 0.01 uM after 48 hrs by SRB assay relative to control; format: functional
[3] = system: HCC 2998; test: Cytotoxicity against human HCC2998 cells assessed as cellular growth at 1 uM after 48 hrs by SRB assay relative to control; format: functional
[4] = system: MOLT-4; test: Cytotoxicity against human MOLT4 cells after 48 hrs by SRB assay; format: functional; conditions: MOLT-4, 48 h
[5] = system: RPMI-8226; test: Cytotoxicity against human RPMI8226 cells after 48 hrs by SRB assay; format: functional; conditions: RPMI-8226, 48 h
[6] = system: RPMI-8226; test: Cytotoxicity against human RPMI8226 cells assessed as cellular growth at 100 uM after 48 hrs by SRB assay relative to control; format: functional
[7] = system: RPMI-8226; test: Cytotoxicity against human RPMI8226 cells assessed as cellular growth at 1 uM after 48 hrs by SRB assay relative to control; format: functional
[8] = system: RPMI-8226; test: Cytotoxicity against human RPMI8226 cells assessed as cellular growth at 0.1 uM after 48 hrs by SRB assay relative to control; format: functional
[9] = system: HCC 2998; test: Cytotoxicity against human HCC2998 cells assessed as cellular growth at 100 uM after 48 hrs by SRB assay relative to control; format: functional
[10] = system: CAKI-1; test: Cytotoxicity against human Caki1 cells assessed as cellular growth at 1 uM after 48 hrs by SRB assay relative to control; format: functional
[11] = system: HCC 2998; test: Cytotoxicity against human HCC2998 cells assessed as cellular growth at 0.01 uM after 48 hrs by SRB assay relative to control; format: functional
[12] = system: MOLT-4; test: Cytotoxicity against human MOLT4 cells assessed as cellular growth at 0.1 uM after 48 hrs by SRB assay relative to control; format: functional
[13] = system: RPMI-8226; test: Cytotoxicity against human RPMI8226 cells assessed as cellular growth at 0.01 uM after 48 hrs by SRB assay relative to control; format: functional
[14] = system: HT-29; test: Cytotoxicity against human HT-29 cells assessed as cellular growth at 0.01 uM after 48 hrs by SRB assay relative to control; format: functional
[15] = system: PC-3; test: Cytotoxicity against human PC3 cells assessed as cellular growth at 0.1 uM after 48 hrs by SRB assay relative to control; format: functional
[16] = system: HT-29; test: Cytotoxicity against human HT-29 cells after 48 hrs by SRB assay; format: functional; conditions: HT-29, 48 h
[17] = system: Mus musculus; test: Toxicity in mouse at 100 to 400 mg/kg measured for 2 weeks; format: organism-based; parameters: dose 100-400 mg/kg; conditions: in vivo, 336 h
[18] = system: HT-29; test: Cytotoxicity against human HT-29 cells assessed as cellular growth at 1 uM after 48 hrs by SRB assay relative to control; format: functional
[19] = system: PC-3; test: Cytotoxicity against human PC3 cells after 48 hrs by SRB assay; format: functional; conditions: PC-3, 48 h
[20] = system: HT-29; test: Cytotoxicity against human HT-29 cells assessed as cellular growth at 0.1 uM after 48 hrs by SRB assay relative to control; format: functional
[21] = system: HT-29; test: Cytotoxicity against human HT-29 cells assessed as cellular growth at 100 uM after 48 hrs by SRB assay relative to control; format: functional
[22] = Cytotoxicity against human melanoma cells assessed as cellular growth at 10 uM after 48 hrs by SRB assay relative to control; format: functional, Melanoma cell
[23] = Cytotoxicity against human prostate cancer cells assessed as cellular growth at 10 uM after 48 hrs by SRB assay relative to control; format: functional, Cancer cell lines
[24] = Cytotoxicity against human leukemia cells assessed as cellular growth at 10 uM after 48 hrs by SRB assay relative to control; format: functional, Leukemia cell
[25] = Cytotoxicity against human colon cancer cells assessed as cellular growth at 10 uM after 48 hrs by SRB assay relative to control; format: functional, Cancer cell lines
[26] = Cytotoxicity against human ovarian cancer cells assessed as cellular growth at 10 uM after 48 hrs by SRB assay relative to control; format: functional, Cancer cell lines
[27] = read-out: LC50 (the source's name)
[28] = read-out: pLC50 (the source's name) (converted)

CN1CCN(CCCn2c3c(sc4ncccc43)c(=O)n3nnc(-c4ccccc4)c23)CC1
GI50 ([1]; read-out: GI50): 1.63 µM
CC50 [1, 27]: 6.65 µM
TGI ([1]; read-out: TGI): 3.29 µM
GI50 ([1]; read-out: pGI50 (converted)): 1.62 µM
CC50 [1, 28]: 6.61 µM
TGI ([1]; read-out: pTGI (converted)): 3.31 µM
Activity [2]: 99%
Activity [3]: 102%
GI50 ([4]; read-out: GI50): 1.98 µM
CC50 [4, 27]: 11.5 µM
TGI ([4]; read-out: TGI): 4.45 µM
GI50 ([4]; read-out: pGI50 (converted)): 2 µM
CC50 [4, 28]: 11.5 µM
TGI ([4]; read-out: pTGI (converted)): 4.47 µM
GI50 ([5]; read-out: GI50): 1.81 µM
CC50 [5, 27]: > 100 µM
TGI ([5]; read-out: TGI): 4.33 µM
GI50 ([5]; read-out: pGI50 (converted)): 1.82 µM
CC50 ([5]; read-out: pLC50 (converted)): > 100 µM
TGI ([5]; read-out: pTGI (converted)): 4.37 µM
Activity [6]: -46%
Activity [7]: 84%
Activity [8]: 100%
Activity [9]: -76%
Activity [10]: 85%
Activity [11]: 104%
Activity [12]: 102%
Activity [13]: 110%

O=C(CCCn1c2c(sc3ccccc32)c(=O)n2nnc(-c3ccccc3)c12)NCCc1c[nH]cn1
Activity [14]: 113%
Activity [15]: 40%
GI50 ([16]; read-out: GI50): 0.674 µM
CC50 [16, 27]: 4.55 µM
TGI ([16]; read-out: TGI): 2.01 µM
GI50 ([16]; read-out: pGI50 (converted)): 0.676 µM
CC50 [16, 28]: 4.57 µM
TGI ([16]; read-out: pTGI (converted)): 2 µM
Activity [17]: Non-toxic
Activity [18]: 43%
GI50 ([19]; read-out: GI50): 0.0603 µM
LC50 ([19]; read-out: LC50): 7.32 µM
TGI ([19]; read-out: TGI): 2.21 µM
GI50 ([19]; read-out: pGI50 (converted)): 0.0603 µM
LC50 ([19]; read-out: pLC50 (converted)): 7.24 µM
TGI ([19]; read-out: pTGI (converted)): 2.19 µM
Activity [20]: 84%
Activity [21]: -100%

O=C(O)CCCn1c2c(sc3ccccc32)c(=O)n2nnc(-c3ccccc3)c12
Activity [22]: 95%
Activity [23]: 92%
Activity [24]: 102%
Activity [25]: 90%
Activity [26]: 105%

Source: ChEMBL document CHEMBL2401728, “An unexpected Dimroth rearrangement leading to annelated thieno[3,2-d][1,2,3]triazolo[1,5-a]pyrimidines with potent antitumor activity” (Eur J Med Chem, 2013)
